Measurements as given in patent US7897401B2, “Control of apoptosis by controlling the propensity of ceramide channel formation” (University of Maryland, College Park, priority 2005, dated 2011).

How the values were obtained:
[1] = tested on: ceramide channel in planar phospholipid membrane; assay: Electrophysiological recordings on planar phospholipid membranes; assay type: biochemical
Description: Planar phospholipid membranes were produced by the monolayer method (Montal, M. et al. (1972) “FORMATION OF BIMOLECULAR MEMBRANES FROM LIPID MONOLAYERs AND A STUDY OF THEIR ELECTRICAL PROPERTIES,” Proc. Natl. Acad. Sci. USA 69:3561-3566) as modified by Colombini, M. (1987) (“CHARACTERIZATION OF CHANNELS ISOLATED FROM PLANT MITOCHONDRIA,” Methods Enzymol. 148:465-475), across a 100-μm-diameter hole in a Saran partition. Monolayers were produced using a solution of 0.5% w/v asolectin, 0.5% w/v DiPhyPC, 0.1% w/v cholesterol in hexane. This technique produces solvent-free phospholipid membranes whose lipid composition (focusing on the polar head-groups) is similar to that found in the mitochondrial outer membrane. It differs from the natural membrane in lacking proteins.
The aqueous solutions contained 1 mM MgCl2, and 5 mM Pipes pH 6.8 with KCl varying from 0.10 M to 1.0 M. The KCl concentration on one side of the membrane, referred to as the “trans” side, was always 0.10 M, whereas the other side (the “cis” side) was adjusted as needed. The transmembrane voltage was electronically clamped and the current through the membrane was recorded. The voltage values indicated are the voltage differences across the membrane cis side minus trans side.
C2-ceramide was stirred into the aqueous solution on each side of the membrane from a solution in DMSO, generally 0.5 mg/ml. Single or multiple additions, typically […] each, yielding a final concentration of 2 μg/ml, were made to achieve a desired level of conductance. Sphingosine additions of 5 μl were made from a solution in DMSO (4 mg/mL) yielding a final concentration of 4 μg/mL.
The observation that anti-apoptotic Bcl-2 family proteins inhibit ceramide channel formation in isolated yeast and rat liver mitochondria correlates with previous reports showing inhibition of ceramide-induced apoptosis in whole cells by these proteins. Thus the results directly tie ceramide-induced mitochondrial-mediated apoptosis with the Bcl-2 family of proteins known to regulate these events. To address whether the antiapoptotic proteins act directly on ceramide channels or work by an indirect action, their affects on ceramide channels in solvent-free planar phospholipid membranes was tested. This is a defined system free of other proteins. When C16-ceramide is added to the aqueous solution bathing one side of a planar phospholipid membrane, it results in discontinuous increases in conductance under voltage-clamp conditions, the defining characteristic of channel formation in membranes. These conductance increments are the enlargement of one ceramide channel rather than the formation of multiple ceramide channels in parallel (Siskind, L. J. et al. (2003) “ENLARGEMENT AND CONTRACTURE OF C2-CERAMIDE CHANNELS,” Biophys. J. 85:1560-1575). […]

[2] = tested on: ceramide channels; assay: Screening for influence on ceramide channel formation in liposomes or planar membranes; assay type: biochemical
Description: In one embodiment, such methods comprise screening compounds for their ability to influence the formation of ceramide channels in liposomes or planar membranes. […] Such liposomes or planar membranes can be produced using any of a variety of lipids. Preferably, however, the constituents of the liposomes or planar membranes will be selected to mimic those of the MOM, or to have relevance to such membranes (see, Weissig, V. et al. (2006) “LIPOSOMES AND LIPOSOME-LIKE VESICLES FOR DRUG AND DNA DELIVERY TO MITOCHONDRIA,” J. Liposome Res. 16(3):249-264; Torchilin, V. P. (2006) “RECENT APPROACHES TO INTRACELLULAR DELIVERY OF DRUGS AND DNA AND ORGANELLE TARGETING,” Annu. Rev. Biomed. Eng. 8:343-375; Elrick, M. J. et al. (2006) “SPHINGOSINE, A PRODUCT OF CERAMIDE HYDROLYSIS, INFLUENCES THE FORMATION OF CERAMIDE CHANNELS,” Biophys. J. 1; 91(5):1749-1756; Bathori, G. et al. (2006) “CA2+-DEPENDENT CONTROL OF THE PERMEABILITY PROPERTIES OF THE MITOCHONDRIAL OUTER MEMBRANE AND VOLTAGE-DEPENDENT ANION-SELECTIVE CHANNEL (VDAC),” J. Biol. Chem. 281(25):17347-17358; Stiban, J. et al. (2006) “DIHYDROCERAMIDE HINDERS CERAMIDE CHANNEL FORMATION: IMPLICATIONS ON APOPIOSIS,” Apoptosis 11(5):773-780; Stover, T. C. et al. (2005) “SYSTEMIC DELIVERY OF LIPOSOMAL SHORT-CHAIN CERAMIDE LIMITS SOLID TUMOR GROWTH IN MURINE MODELS OF BREAST ADENOCARCINOMA,” Clin. Cancer Res. 11(9):3465-3474).

## CCCCCCCCCCCCC/C=C/[C@@H](O)[C@@H](N)CO [sphingosine]
[1]; C2-ceramide 3 μg/mL, sphingosine 8 μg/mL at t=0, KCl gradient
  time at which conductance reached a minimum: 20 min
[1]; C2-ceramide channel (9 μg/mL), sphingosine 4 μg/mL cis side, 10 mV
  time over which membrane conductance decreased after addition: 15 to 20 min
[1]; C2-ceramide channel, sphingosine 4 μg/mL, conductance reached level of unmodified membrane
  effect on formed ceramide channel: completely disassembled
[2]
  concentration at which very potent inhibitor of ceramide channels: 5 µM
